In patent US11970497B2, “Tricyclic AKR1C3 dependent KARS inhibitors” (Novartis AG, priority 2019, dated 2024):

Experiments:
[1] = test system: NCI-H460 human lung cancer xenograft; assay: In vivo efficacy in NCI-H460 xenograft; parameters: species or system mice; conditions: for ΔT/ΔC: qd, Day 18
Description: Compound 40 Dose Dependent In Vivo Efficacy in the KEAP1 Mutant and Moderately AKR1C3 Expressing Human Lung Cancer Xenograft NCI-H460
(§1) Anti-cancer efficacy of Compound 40 was assessed in the NCI-H460 human lung cancer xenograft model in mice that expresses moderate levels of AKR1C3. NCI-H460 tumors were established in nude female mice by injection of a tumor cells subcutaneously. When tumors reached approximately 200 mm^3, mice were randomized according to tumor volume into treatment groups (n=7 per group) on Day 8.

[2] = test system: NCI-H1944 human lung cancer xenograft; assay: In vivo efficacy in NCI-H1944 xenograft; parameters: species or system mice
Description: Compound 40 Dose Dependent In Vivo Efficacy in High AKR1C3 Expressing Human Lung Cancer Xenograft NCI-H1944
as §1, with “NCI-H1944” for “NCI-H460”, “high” for “moderate”, “(n=8” for “(n=7”, “16.” for “8.”

[3] = molecular target: T1, Human KARS (Homo sapiens, UniProt Q15046); assay: KARS AMP Transcreener FP assay; format: biochemical; conditions: 50 nM human KARS, 20 μM ATP, 50 μM L-Lysine, 1 μM tRNA, 2 h at RT; read-out: Human KARS Transcreener AMP assay Qualified absolute AC50
T1 construct: Human KARS protein (residues 70-584) was expressed and purified; made in house
T1 sequence (Q15046 70-584): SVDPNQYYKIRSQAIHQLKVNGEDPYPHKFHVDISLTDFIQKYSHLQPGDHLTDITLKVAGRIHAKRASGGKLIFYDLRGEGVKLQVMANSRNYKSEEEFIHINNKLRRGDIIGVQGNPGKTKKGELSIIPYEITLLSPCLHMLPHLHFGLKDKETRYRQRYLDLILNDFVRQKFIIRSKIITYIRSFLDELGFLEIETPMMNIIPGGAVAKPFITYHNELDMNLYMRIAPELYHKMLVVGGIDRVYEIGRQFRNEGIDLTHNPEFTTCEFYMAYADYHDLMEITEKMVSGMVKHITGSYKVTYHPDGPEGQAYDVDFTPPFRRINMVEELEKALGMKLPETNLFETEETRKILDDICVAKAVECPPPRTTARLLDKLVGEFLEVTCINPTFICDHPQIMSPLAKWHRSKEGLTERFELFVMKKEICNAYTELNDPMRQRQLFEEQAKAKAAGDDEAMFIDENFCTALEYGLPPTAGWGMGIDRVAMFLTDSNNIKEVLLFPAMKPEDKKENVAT
Description: KARS AMP Transcreener FP Assay to Measure Inhibition of KARS Enzymatic Activity
Lysine-tRNA synthetase (KARS) is an enzyme that catalyzes the reaction of ATP, L-lysine, and tRNA(Lys) to form AMP, diphosphate, and L-lysyl-tRNA(Lys).
The Transceener® AMP/GMP (BellBrook Labs, Madison, WI, USA) is a far red, competitive fluorescence polarization (FP) immunoassay based on the detection of AMP, which is one of the products of aminoacylation of tRNA. In this assay, a fluorescently labeled AMP (AMP Alexa Fluor 633) is used as the tracer that can be recognized by a specific antibody. In the absence of AMP, all the tracer molecules are bound to the antibodies leading to large polarization. The AMP product generated by the enzyme reaction will compete with the tracer for binding to the antibody which leads to a decrease in the polarization. As such, the enzyme activity is inversely proportional to FP values.
Human KARS protein (residues 70-584) was expressed and purified using a similar protocol to what is described in literature (Crystal structure of tetrameric form of human lysyl-tRNA synthetase: Implications for multisynthetase complex formation Guo, M., Ignatov, M., Musier-Forsyth, K., Schimmel, P., Yang, X. L. (2008) Proc. Natl. Acad. Sci. Usa 105: 2331-2336).
The KARS enzyme assay was performed in a final volume of 10 μL per well of Corning Costar 384 well plate, flat bottom, black non-treated plate. The final assay concentration was 20 mM HEPES pH 7.5, 1 mM DTT, 50 nM human KARS, 20 μM ATP, 50 μM L-Lysine, 1 μM tRNA and 8 mM MgCl2. Compounds were serial diluted 1:3 in DMSO in a master plate to generate a 10 concentration points dose response with maximum concentration of 10 mM. 50 nL from compound master plate were spotted in each well of a 384 black plate (Corning 3573), and 5 μL of enzyme mixture containing 100 nM KARS diluted in assay buffer (20 mM HEPES pH 7.5 and 1 mM OTT) were added. The reaction was started by adding 5 μL of the substrate mixture containing 40 μM ATP (final 20 μM ATP), 100 μM L-Lysine (final 50 μM), 2 μM tRNA (final 1 μM), 16 mM MgCl2 (final 8 mM MgCl2) diluted in assay buffer (20 mM HEPES pH 7.5 and 1 mM OTT). The mixtures were mixed and incubated for 2 h at RT before the termination of the reaction.
Transcreener® stop and detection buffers were prepared (1× stop buffer [final: 0.5×], 2 nM Tracer [final: 1 nM] and 5 μg/ml anti-AMP antibody [final: 2.5 μg/ml] in deionized water) and 10 μL of the stop and detection mix were added to the reaction wells, mixed for a minute and centrifuged at 1000 rpm for 10 seconds. The plates were read after incubating at RT for 30-60 min using Infinite® M1000 with the following settings: Excitation wavelength: 635 nm; Emission wavelength: 680 nm. FP values of DMSO controls were used to normalize the data and calculate IC50s of compounds using the Helios Software suite.

O=C1CC2(CCN(C(=O)NCc3ccc(F)cc3)CC2)Nc2ccc(F)cc21 [Example 40]
Tumor response ([1]; 75 mg/kg qd): clear reduction in efficacy
ΔT/ΔC ([1]; 75 mg/kg, po): 25.9%
Tumor response ([1]; 150 mg/kg qd): some reduction in efficacy
ΔT/ΔC ([1]; 150 mg/kg, po): 5.6%
ΔT/ΔC ([1]; 300 mg/kg po): 1.8%
Tumor response ([1]; 300 mg/kg qd): Tumor stasis
ΔT/ΔC ([2]; 75 mg/kg po, qd, Day 44): 4.9%
Tumor response ([2]; 75 mg/kg qd po): Tumor stasis
Regression ([2]; 150 mg/kg po, qd, Day 44): 98.5%
Regression ([2]; 300 mg/kg po, qd, Day 44): 100%
Tumor response ([2]; all dose levels): efficacy benefit
Tumor response ([2]; dose levels above 75 mg/kg qd, po): deep tumor regression
AC50 [3]: > 10 µM
